Data taken from patent EP4682156A1, “LINKER AND DRUG CONJUGATE USING SAME, AND ANTIBODY-DRUG CONJUGATE AND USE THEREOF” (Shanghai Affinity Biopharmaceutical Co., Ltd., priority 2023, dated 2024).
Like-named read-outs stand apart in the source and are kept apart here. *1 amine or outer side, *2 acyl side, *3 side chain or, on linkers, in order; H or OH if unused. Where a SMILES comes first, the peptide text is derived from it. [ ]: non-standard residue; d: D form. The star is where a group is joined. Doxorubicin(3'-N) = COc1cccc2c1C(=O)c1c(O)c3c(c(O)c1C2=O)C[C@@](O)(C(=O)CO)C[C@@H]3O[C@H]1C[C@H](N*)[C@H](O)[C@H](C)O1; Exatecan = CC[C@@]1(O)C(=O)OCc2c1cc1n(c2=O)Cc2c-1nc1cc(F)c(C)c3c1c2[C@@H](N*)CC3; X8 = CCc1c2c(nc3ccc(O)cc13)-c1cc3c(c(=O)n1C2)COC(=O)[C@@]3(CC)OCN*; X5 = CCc1c2c(nc3ccc(OCN*)cc13)-c1cc3c(c(=O)n1C2)COC(=O)[C@]3(O)CC; X1 = O=C(CCCCCOC1O[C@H](CO)[C@H](O)[C@H](O)[C@H]1N[*:1])[*:2]; X9 = Nc1ccn([C@@H]2O[C@H](COCN*)[C@@H](O)C2(F)F)c(=O)n1; Dolaproine = CO[C@@H]([C@@H]1CCCN1)[C@@H](C)C(=O)O; Hexanoyl(6-maleimido) = O=C1C=CC(=O)N1CCCCCC(=O)*; Dil = CC[C@H](C)[C@H](NC)[C@@H](CC(=O)O)OC; X4 = CCCCc1nc2c(N)nc3ccccc3c2n1CCCCN*; X7 = O=C(OC1[C@H]2CCC#CCC[C@@H]12)*; DBCO = C1#Cc2ccccc2N(*)Cc2ccccc21; NHCH2OCH2CO = O=C(COCN[*:1])[*:2]; X3 = C[C@@H](N*)[C@@H](O)c1ccccc1; X6 = O=C1C=C(Br)C(=O)N1CCC(=O)*; X2 = COCCOCCOCCOCCOCCOCC(=O)*; Suc = O=C(CCC(=O)[*:2])[*:1]; NMeV = CN[C@H](C(=O)O)C(C)C; PEG3 = NCCOCCOCCOCCC(=O)O; GABA = NCCCC(=O)O

Columns and labels:
cathepsin L = cathepsin L (Homo sapiens, UniProt P07711); assay: Enzymatic cleavage by cathepsin L, released DXD quantified by HPLC; type: biochemical; set-up: Enzymatic cleavage efficiency %: concentration or dose not given beside the values
Sequence of cathepsin L (P07711 114-333): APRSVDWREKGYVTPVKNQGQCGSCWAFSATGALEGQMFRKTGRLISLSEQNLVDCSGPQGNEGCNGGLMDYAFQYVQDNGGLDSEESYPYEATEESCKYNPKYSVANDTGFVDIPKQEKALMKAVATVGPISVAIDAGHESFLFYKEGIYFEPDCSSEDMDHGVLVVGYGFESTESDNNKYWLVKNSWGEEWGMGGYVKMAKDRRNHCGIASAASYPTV

[1] = human
[2] = Stability in human plasma; details: within 20 hours
Human Fibrosarcoma = system: Human Fibrosarcoma; set-up: species or system Nude mice; details: mouse, in vivo

Structure (SMILES)	Enzymatic cleavage efficiency % (cathepsin L)	Substrate content % [2]	further results
CC[C@@]1(O)C(=O)OCc2c1cc1n(c2=O)Cc2c-1nc1cc(F)c(C)c3c1c2[C@@H](NC(=O)COCNC(=O)[C@@H](N)CC(C)C)CC3 [L-AM-DXD, Leu-AM-DXd, reference compound]	–	–	DXD produced, share of the reaction substrate (enzymatic cleavage activation efficiency) (cathepsin L; pH 6): 1.45%
COc1cccc2c1C(=O)c1c(O)c3c(c(O)c1C2=O)C[C@@](O)(C(=O)CO)C[C@@H]3O[C@H]1C[C@H](NC(=O)[C@H](CC(C)C)NC(=O)[C@H](Cc2ccccc2)NC(=O)CNC(=O)CNC(=O)CCCCCN2C(=O)C=CC2=O)[C@H](O)[C@H](C)O1 [S1] ({Hexanoyl(6-maleimido)}-GGFL-{Doxorubicin(3'-N)})	90.5%	–	Generated load % [1]: 0.0%; Substrate content % [1]: 100%
CC[C@@]1(O)C(=O)OCc2c1cc1n(c2=O)Cc2c-1nc1cc(F)c(C)c3c1c2[C@@H](NC(=O)[C@H](CC(C)C)NC(=O)[C@H](Cc1ccccc1)NC(=O)CNC(=O)CNC(=O)CCCCCN1C(=O)C=CC1=O)CC3 [S2] ({Hexanoyl(6-maleimido)}-GGFL-Exatecan)	91.1%	100%	–
CCCCc1nc2c(N)nc3ccccc3c2n1CCCCNC(=O)[C@H](CC(C)C)NC(=O)[C@H](Cc1ccccc1)NC(=O)CNC(=O)CNC(=O)CCCCCN1C(=O)C=CC1=O [S3] ({Hexanoyl(6-maleimido)}-GGFL-X4)	–	100%	Enzymatic cleavage efficiency % (cathepsin L; cathepsin L, within 20 h): 91.0%
CC[C@H](C)[C@@H]([C@@H](CC(=O)N1CCC[C@H]1[C@H](OC)[C@@H](C)C(=O)N[C@H](C)[C@@H](O)c1ccccc1)OC)N(C)C(=O)[C@@H](NC(=O)[C@H](C(C)C)N(C)C(=O)[C@H](CC(C)C)NC(=O)[C@H](Cc1ccccc1)NC(=O)CNC(=O)CNC(=O)CCCCCN1C(=O)C=CC1=O)C(C)C [S5] ({Hexanoyl(6-maleimido)}-GGFL[NMeV]V[Dil][Dolaproine]-X3)	93.1%	–	–
CC[C@@]1(O)C(=O)OCc2c1cc1n(c2=O)Cc2c-1nc1cc(F)c(C)c3c1c2[C@@H](NC(=O)COCNC(=O)[C@H](CC(C)C)NC(=O)[C@H](Cc1ccccc1)NC(=O)CNC(=O)CNC(=O)CCCCCN1C(=O)C=CC1=O)CC3 [S6] ({Hexanoyl(6-maleimido)}-GGFL[NHCH2OCH2CO]-Exatecan)	98.0%	98.0%	Generated load % [2]: 2.0%
CC[C@@]1(O)C(=O)OCc2c1cc1n(c2=O)Cc2c-1nc1cc(F)c(C)c3c1c2[C@@H](NC(=O)COCNC(=O)[C@H](CC(C)C)NC(=O)[C@H](Cc1ccccc1)NC(=O)CNC(=O)CNC(=O)[C@H](CCCCNC(=O)COCCOCCOCCOCCOCCOC)NC(=O)CCCCCN1C(=O)C=CC1=O)CC3 [S8] ({Hexanoyl(6-maleimido)}-K(X2)GGFL[NHCH2OCH2CO]-Exatecan)	98.0%	98.0%	Anti-tumor rate% Day 20 (Human Fibrosarcoma): 98%; Tumor volume(mm^3) Day 20 (Human Fibrosarcoma): 15 mm^3; treatment efficacy compared with DXd (Human Fibrosarcoma): significantly improved treatment efficacy
CCc1c2c(nc3ccc(OCNC(=O)[C@H](CC(C)C)NC(=O)[C@H](Cc4ccccc4)NC(=O)CNC(=O)CNC(=O)CCCCCN4C(=O)C=CC4=O)cc13)-c1cc3c(c(=O)n1C2)COC(=O)[C@]3(O)CC [S14] ({Hexanoyl(6-maleimido)}-GGFL-X5)	98.0%	98.0%	–
CCc1c2c(nc3ccc(O)cc13)-c1cc3c(c(=O)n1C2)COC(=O)[C@@]3(CC)OCNC(=O)[C@H](CC(C)C)NC(=O)[C@H](Cc1ccccc1)NC(=O)CNC(=O)CNC(=O)CCCCCN1C(=O)C=CC1=O [S15] ({Hexanoyl(6-maleimido)}-GGFL-X8)	95.1%	–	–
CC(C)C[C@H](NC(=O)[C@H](Cc1ccccc1)NC(=O)CNC(=O)CNC(=O)CCCCCN1C(=O)C=CC1=O)C(=O)NCOC[C@H]1O[C@@H](n2ccc(N)nc2=O)C(F)(F)[C@@H]1O [S16] ({Hexanoyl(6-maleimido)}-GGFL-X9)	92.3%	–	–
CC[C@@]1(O)C(=O)OCc2c1cc1n(c2=O)Cc2c-1nc1cc(F)c(C)c3c1c2[C@@H](NC(=O)COCNC(=O)[C@H](CC(C)C)NC(=O)[C@H](Cc1ccccc1)NC(=O)CNC(=O)CNC(=O)CCCCCOC1O[C@H](CO)[C@H](O)[C@H](O)[C@H]1NC(C)=O)CC3 (stereo partly shown) [S18] (Ac-[X1]GGFL[NHCH2OCH2CO]-Exatecan)	98.3%	98.2%	Anti-tumor rate% Day 20 (Human Fibrosarcoma): 95%; Tumor volume(mm^3) Day 20 (Human Fibrosarcoma): 40 mm^3; treatment efficacy compared with DXd (Human Fibrosarcoma): significantly improved treatment efficacy
CC[C@@]1(O)C(=O)OCc2c1cc1n(c2=O)Cc2c-1nc1cc(F)c(C)c3c1c2[C@@H](NC(=O)[C@H](CC(C)C)NC(=O)[C@H](Cc1ccccc1)NC(=O)CNC(=O)CNC(=O)CCN1C(=O)C=C(Br)C1=O)CC3 [S26] (X6-GGFL-Exatecan)	95.1%	100%	–
CCCCc1nc2c(N)nc3ccccc3c2n1CCCCNC(=O)[C@H](CC(C)C)NC(=O)[C@H](Cc1ccccc1)NC(=O)CNC(=O)CNC(=O)CCOCCOCCOCCNC(=O)OC1[C@H]2CCC#CCC[C@@H]12 (stereo partly shown) [S27]	–	100%	Enzymatic cleavage efficiency % (cathepsin L; cathepsin L, within 20 h): 94.5%
CC[C@@]1(O)C(=O)OCc2c1cc1n(c2=O)Cc2c-1nc1cc(F)c(C)c3c1c2[C@@H](NC(=O)CCCNC(=O)[C@H](CC(C)C)NC(=O)[C@H](Cc1ccccc1)NC(=O)CNC(=O)CNC(=O)CCOCCOCCOCCNC(=O)OC1[C@H]2CCC#CCC[C@@H]12)CC3 (stereo partly shown) [S28] ({X7-PEG3}-GGFL[GABA]-Exatecan)	95.1%	100%	–
CCCCc1nc2c(N)nc3ccccc3c2n1CCCCNC(=O)[C@H](CC(C)C)NC(=O)[C@H](Cc1ccccc1)NC(=O)CNC(=O)CNC(=O)CCOCCOCCOCCNC(=O)CCC(=O)N1Cc2ccccc2C#Cc2ccccc21 [S31] ({DBCO-Suc-PEG3}-GGFL-X4)	97.5%	–	–
CC[C@@]1(O)C(=O)OCc2c1cc1n(c2=O)Cc2c-1nc1cc(F)c(C)c3c1c2[C@@H](NC(=O)CCCNC(=O)[C@H](CC(C)C)NC(=O)[C@H](Cc1ccccc1)NC(=O)CNC(=O)CNC(=O)CCOCCOCCOCCNC(=O)CCC(=O)N1Cc2ccccc2C#Cc2ccccc21)CC3 [S32] ({DBCO-Suc-PEG3}-GGFL[GABA]-Exatecan)	98.0%	100%	–
CC[C@@]1(O)C(=O)OCc2c1cc1n(c2=O)Cc2c-1nc1cc(F)c(C)c3c1c2[C@@H](NC(=O)COCNC(=O)[C@H](CC(C)C)NC(=O)[C@H](Cc1ccccc1)NC(=O)CNC(=O)CNC(=O)CCOCCOCCOCCNC(=O)CCC(=O)N1Cc2ccccc2C#Cc2ccccc21)CC3 [S34] ({DBCO-Suc-PEG3}-GGFL[NHCH2OCH2CO]-Exatecan)	98.1%	98.3%	–
